Some test systems named below: M14 melanoma; SK-MEL-28 melanoma; HCT-116 colon; CCRF-CEM leukemia; NCI-H23 lung; HL-60(TB) leukemia; NCI-H226 lung; IGROV1 ovarian; DU-145 prostate; MDA-N.
Test in all cases: NCI-60 cell line screen, 48 h

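Each compound was tested at five concentrations against cells in 96-well plates for 48 hours. Abbreviation: GI50, concentration required for 50% inhibition of growth. TGI: total growth inhibition.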

`COc1cc2c(c(OC)c1)C(=O)C(=O)C(CC1(C)OCCCO1)=C2`: the TGI in the assay on M14 melanoma was determined as 24.3 µM; in the assay with SK-MEL-28 melanoma it was 28.6 µM; with HCT-116 colon, 10.3 µM; in the assay on CCRF-CEM leukemia, 4.72 µM; in the assay on NCI-H23 lung it was 24.3 µM; with HL-60(TB) leukemia it was 4.28 µM. Further, the results for the TGI in the assay on NCI-H226 lung and in the assay on IGROV1 ovarian were 19.6 µM and 27.8 µM, respectively.
On to `CCOC(=O)C1=C(C)C2C3C(=O)OC(=O)C3C1(C)C1C(=O)OC(=O)C21` (stereo not drawn), for which the TGI with M14 melanoma, in the assay on SK-MEL-28 melanoma, with HCT-116 colon, in the assay with CCRF-CEM leukemia, in the assay on NCI-H23 lung and in the assay on HL-60(TB) leukemia was more than 100 µM throughout. Also, the TGI in the assay with NCI-H226 lung and in the assay with IGROV1 ovarian was more than 100 µM throughout.
Take `O=C(Nc1ccccc1)c1cc2cc(CCl)ccc2oc1=O`: the TGI with M14 melanoma, in the assay with SK-MEL-28 melanoma, with HCT-116 colon, in the assay on CCRF-CEM leukemia, in the assay with NCI-H23 lung and in the assay on HL-60(TB) leukemia was more than 100 µM in each case. Besides, the TGI with NCI-H226 lung, with DU-145 prostate and in the assay on IGROV1 ovarian was more than 100 µM throughout.
As for `COc1ccccc1NC(=O)C(=O)C(c1cnc2ccc([N+](=O)[O-])cc2n1)[N+](=O)[O-]` (stereo not drawn), the TGI in the assay with M14 melanoma, with SK-MEL-28 melanoma, in the assay on HCT-116 colon, in the assay on CCRF-CEM leukemia, in the assay with NCI-H23 lung and with HL-60(TB) leukemia was more than 100 µM each time. In addition, the TGI in the assay with NCI-H226 lung and in the assay with IGROV1 ovarian was more than 100 µM each time.
With `O=C(O)C1Cc2[nH]c3ccccc3c2C2CCCC12` (stereo not drawn), the TGI in the assay with M14 melanoma, in the assay with SK-MEL-28 melanoma, in the assay with HCT-116 colon, in the assay on CCRF-CEM leukemia, with NCI-H23 lung and with NCI-H226 lung was more than 100 µM in each case. Further, the TGI in the assay on IGROV1 ovarian was more than 100 µM.
As for `CCCc1cn2c(/C=N/N=C(N)N)c(-c3ccc([N+](=O)[O-])cc3)nc2s1`, the TGI in the assay on M14 melanoma came to 3.18 µM; in the assay on SK-MEL-28 melanoma it was 4.66 µM; in the assay with HCT-116 colon, 1.6 µM; in the assay on CCRF-CEM leukemia, 1.3 µM; in the assay with NCI-H23 lung it was 2.82 µM; with HL-60(TB) leukemia, 2.52 µM. Also, the TGI in the assay with NCI-H226 lung came to 3.33 µM; in the assay on IGROV1 ovarian, 3.05 µM.
In the case of `COc1cc(Cn2c3ccccc3c3cc(C)cc(OC)c32)cc2c1[nH]c1ccccc12`, the GI50 with M14 melanoma is 6.27 µM; in the assay on CCRF-CEM leukemia it was 12 µM; with HL-60(TB) leukemia, 12.3 µM; in the assay on NCI-H226 lung, 17 µM. For the same compound, the TGI with M14 melanoma was 20.2 µM; with SK-MEL-28 melanoma, more than 25 µM; in the assay on HCT-116 colon it was more than 25 µM; with CCRF-CEM leukemia it was more than 25 µM; with HL-60(TB) leukemia it was more than 25 µM; in the assay with NCI-H226 lung, more than 25 µM. The compound further yielded a TGI in the assay with IGROV1 ovarian of more than 25 µM.
For `N#CCCN(c1ccc(C=Nc2ccc(C(=O)O)cc2)cc1)S(=O)(=O)c1ccccc1`, the TGI in the assay with M14 melanoma, in the assay with SK-MEL-28 melanoma, in the assay with HCT-116 colon, in the assay on CCRF-CEM leukemia, with NCI-H23 lung and with HL-60(TB) leukemia was more than 100 µM throughout. The TGI in the assay on NCI-H226 lung and in the assay with IGROV1 ovarian was more than 100 µM each time.
Take `CCCC1(N2C(=O)c3ccc4c5c(ccc(c35)C2=O)N(C2(CCC)CCCCC2)C4=O)CCCCC1`: the TGI with M14 melanoma, in the assay on SK-MEL-28 melanoma, in the assay on HCT-116 colon, with NCI-H23 lung, with MDA-N and with DU-145 prostate was more than 100 µM throughout.
With `Cc1cc(N(CCC#N)CCC#N)ccc1/C=C(\N=[N+]=[N-])C(=O)NC(=O)COc1ccccc1`, the TGI in the assay with M14 melanoma, with SK-MEL-28 melanoma, in the assay on HCT-116 colon, in the assay on CCRF-CEM leukemia, in the assay with NCI-H23 lung and in the assay on HL-60(TB) leukemia was more than 100 µM in each case. Moreover, the TGI with NCI-H226 lung and in the assay on IGROV1 ovarian was more than 100 µM each time.
As for `COc1cccc2c1C(=O)c1c(O)c3c(c(O)c1C2=O)CC(O)(C(C)=O)CC3OC1OC(COC(C)=O)C(OC(C)=O)C(OC(C)=O)C1OC(C)=O` (stereo not drawn), the TGI with M14 melanoma was more than 100 µM; in the assay on SK-MEL-28 melanoma, more than 100 µM; with HCT-116 colon it was more than 100 µM; in the assay with CCRF-CEM leukemia, 0.131 µM; in the assay on HL-60(TB) leukemia it was more than 100 µM; in the assay with DU-145 prostate it was more than 100 µM. For the same compound, the TGI in the assay with IGROV1 ovarian was 47.5 µM.
In the case of `Cc1cc2nc3c(C#N)c4c(c(Cl)n3c2cc1C)CCC4`, the TGI was 88.9 µM in the assay on SK-MEL-28 melanoma, 29.6 µM in the assay on HCT-116 colon, 62.6 µM in the assay with NCI-H23 lung and more than 100 µM with NCI-H226 lung.
In the case of `CCOC(=O)C(C(=O)OCC)S(C)(=O)=O`, the TGI in the assay on M14 melanoma, in the assay on SK-MEL-28 melanoma, in the assay on HCT-116 colon, in the assay with CCRF-CEM leukemia, in the assay on NCI-H23 lung and with HL-60(TB) leukemia was more than 100 µM in each case. In addition, the TGI in the assay with NCI-H226 lung and in the assay on IGROV1 ovarian was more than 100 µM each time.
As for `O=[N+]([O-])c1ccc(C2NC(=S)NC3c4cc([N+](=O)[O-])ccc4CCCC23)cc1` (stereo not drawn), the TGI in the assay with M14 melanoma, in the assay on SK-MEL-28 melanoma, in the assay on HCT-116 colon, with CCRF-CEM leukemia, in the assay on NCI-H23 lung and in the assay with HL-60(TB) leukemia was more than 100 µM throughout. Besides, the TGI in the assay with NCI-H226 lung, with DU-145 prostate and in the assay on IGROV1 ovarian was more than 100 µM in each case.
Turning to `O=C(O)CCC1(CCC(=O)O)CCCCCCCCC(CCC(=O)O)(CCC(=O)O)C(=O)C1=O`, the TGI with M14 melanoma, in the assay on SK-MEL-28 melanoma, in the assay with HCT-116 colon, with NCI-H23 lung, in the assay with HL-60(TB) leukemia and in the assay with NCI-H226 lung was more than 100 µM in each case. In addition, the TGI in the assay with DU-145 prostate was more than 100 µM.
Consider `N#Cc1c2c(c(Nc3cccc(C(F)(F)F)c3)n3c1nc1ccccc13)CCCC2`, for which the TGI in the assay with SK-MEL-28 melanoma is 47.5 µM; with HCT-116 colon, more than 100 µM; in the assay on NCI-H23 lung it was 89.2 µM; with MDA-N, 56.7 µM; in the assay on NCI-H226 lung it was 63.2 µM; in the assay with DU-145 prostate it was more than 100 µM.
Take `COc1cc2cnc3c4cc(O)ccc4ccc3c2cc1OC`: the TGI in the assay on M14 melanoma, in the assay with SK-MEL-28 melanoma, with HCT-116 colon, in the assay with CCRF-CEM leukemia, in the assay with NCI-H23 lung and in the assay on HL-60(TB) leukemia was more than 100 µM throughout. Besides, the TGI in the assay on NCI-H226 lung and in the assay with IGROV1 ovarian was more than 100 µM in each case.
On to `CCOC(=O)c1cc(C2CCN(Cc3ccccc3)C2=O)c(C(=O)/C=C(/C)N)[nH]1` (stereo not drawn), for which the TGI with M14 melanoma, in the assay on SK-MEL-28 melanoma, in the assay with HCT-116 colon, in the assay with NCI-H23 lung, in the assay with MDA-N and in the assay on DU-145 prostate was more than 100 µM throughout. Besides, the TGI in the assay with IGROV1 ovarian was more than 100 µM.
With `O=S1(=O)OCCOS(=O)(=O)C1(Br)Br`, the TGI in the assay on M14 melanoma, in the assay with SK-MEL-28 melanoma, in the assay on HCT-116 colon, with CCRF-CEM leukemia, in the assay on NCI-H23 lung and in the assay on HL-60(TB) leukemia was more than 100 µM in each case. Besides, the TGI in the assay on NCI-H226 lung worked out at 94.1 µM.
`N#C/C(=C\c1ccccc1F)C(=O)c1ccccc1`: the TGI in the assay on M14 melanoma, in the assay with SK-MEL-28 melanoma, with HCT-116 colon, in the assay on CCRF-CEM leukemia, in the assay with NCI-H23 lung and in the assay with HL-60(TB) leukemia was more than 100 µM throughout. The compound also registered a TGI in the assay on IGROV1 ovarian of more than 100 µM.
Turning to `CN(C)C1(N(C)C)Oc2c(c(=O)n(C)c(=O)n2C)C(c2ccc(F)cc2)C1(F)F` (stereo not drawn), the TGI with M14 melanoma, with SK-MEL-28 melanoma, in the assay with HCT-116 colon, with CCRF-CEM leukemia, in the assay with NCI-H23 lung and in the assay on NCI-H226 lung was more than 100 µM throughout. This compound showed a TGI with DU-145 prostate of more than 100 µM.
`Cc1nc2c(n1Cc1ccc(F)cc1)C(=O)c1ccccc1C2=O`: the TGI is more than 100 µM in the assay on M14 melanoma; more than 100 µM in the assay on SK-MEL-28 melanoma; more than 100 µM with HCT-116 colon; more than 100 µM in the assay with CCRF-CEM leukemia; more than 100 µM with NCI-H23 lung; 29.7 µM in the assay with HL-60(TB) leukemia. Also, the TGI in the assay with NCI-H226 lung and with IGROV1 ovarian was more than 100 µM in each case.
With `Oc1c(Cl)c(Cl)c(O)c(-c2cnc(-c3ncc(-c4c(O)c(Cl)c(Cl)c(O)c4Cl)s3)s2)c1Cl`, the TGI is 47.2 µM in the assay with M14 melanoma; 75.6 µM with SK-MEL-28 melanoma; 42 µM in the assay with HCT-116 colon; more than 100 µM in the assay with CCRF-CEM leukemia; 39.9 µM in the assay with NCI-H23 lung; more than 100 µM with HL-60(TB) leukemia. The values for the TGI with NCI-H226 lung, with DU-145 prostate and in the assay with IGROV1 ovarian were 14 µM, more than 100 µM and 37 µM, respectively.
`O=C(OCC1CC(C2(O)CCCCC2)C(=O)O1)c1ccccc1` (stereo not drawn): the TGI in the assay on M14 melanoma, in the assay on SK-MEL-28 melanoma, in the assay with HCT-116 colon, in the assay with CCRF-CEM leukemia, with NCI-H23 lung and in the assay on NCI-H226 lung was more than 100 µM throughout. Moreover, the TGI in the assay on DU-145 prostate and in the assay with IGROV1 ovarian was more than 100 µM each time.

The record behind these values is PubChem BioAssay (NCI).
